Laboratory results reported in US4212797A, “Synthetic pentapeptide having opiate agonist activity” (Beckman Instruments, Inc., priority 1976, dated 1980).

Experiments:
[1] = test system: opiate receptor (stereospecific naloxone binding); test: Inhibition of stereospecific naloxone binding (Pert and Snyder technique); details: for ID50, concentration required to inhibit 50% of stereospecific naloxone binding: sodium 100 mM
Procedure: B., and Snyder, S., Proceedings of the National Academy of Sciences, Vol. 70, pp. 2243-2247 (1973). The potency is measured as ID50, defined as the concentration required to inhibit 50% of stereospecific naloxone binding. The concentration of sodium was 100 mM. The effectiveness is inversely related to the ID50 value.

opiate receptor sites = details: Hughes et al, Nature 258, 577-579 (1975); cited from earlier work

Row | SMILES | Potency relative to the more potent sequence of enkephalin ([1]; from ID50 values of Table 1) | ID50, concentration required to inhibit 50% of stereospecific naloxone binding [1] | Opiate agonist potency, comparison in words (opiate receptor sites)
1 | CSCC[C@H](NC(=O)[C@H](Cc1ccccc1)NC(=O)CNC(=O)CNC(=O)[C@@H](N)Cc1ccc(O)cc1)C(N)=O [Subject Pentapeptide, H-Tyr-Gly-Gly-Phe-Met-NH2] | twice as potent as the more potent sequence of enkephalin | 0.2 | –
2 | CC(C)C[C@H](NC(=O)[C@H](Cc1ccccc1)NC(=O)CNC(=O)CNC(=O)[C@@H](N)Cc1ccc(O)cc1)C(=O)O [Enkephalin sequence two, H-Tyr-Gly-Gly-Phe-Leu-OH] | – | 1.4 | –
3 | CSCC[C@H](NC(=O)[C@H](Cc1ccccc1)NC(=O)CNC(=O)CNC(=O)[C@@H](N)Cc1ccc(O)cc1)C(=O)O [Enkephalin sequence one, H-Tyr-Gly-Gly-Phe-Met-OH] | – | 0.4 | more potent than sequence two
